Like-named read-outs stand apart in the source and are kept apart here. Where only a bound is given, the exact number is not on record here.

We go through 22 compounds from patent US20230093099A1, “COMPOUNDS AND METHODS OF TREATING CANCERS” (CULLGEN (SHANGHAI), INC., priority 2019, published 2023).

This assay concerns RS4;11 cells. Kind of assay: Cell viability assay (CellTiter-Glo) in RS4;11 cells. The class given is cell-based. As to conditions: Homo sapiens, 72 h. Summed up: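 Three-day compound treatment of RS4;11 ALL cells (5000/well, 3-fold dilution series of 8 or 12 points), with IC50 from a nonlinear least-squares fit to CellTiter-Glo viability data.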
A general note: ATP-based viability assays read luminescence as a measure of living cells.

The mark [1] stands for this setting: RS4;11 ALL cells treated for three days, read-out: cell viability inhibition IC50.
[2] abbreviates: RS4;11 cells, cell viability, 3 days, CellTiter-Glo, read-out: IC50.

Consider `O=C1CCC(N2C(=O)c3ccc(NCCCCCCC(=O)N4CCC(n5cc(-c6cnc7cccc(-c8cc(F)c(CN9CCOCC9)c(F)c8)c7n6)cn5)CC4)cc3C2=O)C(=O)N1` (stereo not shown) [JA-188, 5-((7-(4-(4-(8-(3,5-difluoro-4-(morpholinomethyl)phenyl)quinoxalin-2-yl)-1H-pyrazol-1-yl)piperidin-1-yl)-7-oxoheptyl)amino)-2-(2,6-dioxopiperidin-3-yl)isoindoline-1,3-dione], for which the IC50 – broadly, the concentration that gives 50% inhibition – under setting [1] was < 100 nM and the IC50 under setting [2] worked out at 69.7 nM.

As for `O=C1CCC(N2C(=O)c3ccc(NCCC(=O)N4CCC(n5cc(-c6cnc7cccc(-c8cc(F)c(CN9CCOCC9)c(F)c8)c7n6)cn5)CC4)cc3C2=O)C(=O)N1` (stereo not shown) [JA-190, 5-((3-(4-(4-(8-(3,5-Difluoro-4-(morpholinomethyl)phenyl)quinoxalin-2-yl)-1H-pyrazol-1-yl)piperidin-1-yl)-3-oxopropyl)amino)-2-(2,6-dioxopiperidin-3-yl)isoindoline-1,3-dione], the IC50 under setting [2] came out at 5160 nM. The same measure, in the same setting: to `O=C1CCC(N2C(=O)c3ccc(NCC(=O)N4CCC(n5cc(-c6cnc7cccc(-c8cc(F)c(CN9CCOCC9)c(F)c8)c7n6)cn5)CC4)cc3C2=O)C(=O)N1` (stereo not shown) [JA-191] belongs 9500 nM. On the same count and under the same terms, the value for `O=C1CCC(N2C(=O)c3ccc(NCCCC(=O)N4CCC(n5cc(-c6cnc7cccc(-c8cc(F)c(CN9CCOCC9)c(F)c8)c7n6)cn5)CC4)cc3C2=O)C(=O)N1` (stereo not shown) [JA-192, 5-((4-(4-(4-(8-(3,5-Difluoro-4-(morpholinomethyl)phenyl)quinoxalin-2-yl)-1H-pyrazol-1-yl)piperidin-1-yl)-4-oxobutyl)amino)-2-(2,6-dioxopiperidin-3-yl)isoindoline-1,3-dione] was > 10000 nM; that for `CS(=O)(=O)c1ccc(-c2cccc3nc(Nc4ccc(N5CCN(C(=O)CCOCCOCCOCCOCCOCCNc6ccc7c(c6)C(=O)N(C6CCC(=O)NC6=O)C7=O)CC5)cc4)nn23)cc1` (stereo not shown) [JA-193, 2-(2,6-Dioxopiperidin-3-yl)-5-((18-(4-(4-((5-(4-(methylsulfonyl)phenyl)-[1,2,4]triazolo[1,5-a]pyridin-2-yl)amino)phenyl)piperazin-1-yl)-18-oxo-3,6,9,12,15-pentaoxaoctadecyl)amino)isoindoline-1,3-dione] was > 10000 nM. For `CS(=O)(=O)c1ccc(-c2cccc3nc(Nc4ccc(N5CCN(C(=O)CNc6ccc7c(c6)C(=O)N(C6CCC(=O)NC6=O)C7=O)CC5)cc4)nn23)cc1` (stereo not shown) [JA-194, 2-(2,6-Dioxopiperidin-3-yl)-5-((2-(4-(4-((5-(4-(methylsulfonyl)phenyl)-[1,2,4]triazolo[1,5-a]pyridin-2-yl)amino)phenyl)piperazin-1-yl)-2-oxoethyl)amino)isoindoline-1,3-dione], the IC50 under setting [2] was > 10000 nM. Turning to `CS(=O)(=O)c1ccc(-c2cccc3nc(Nc4ccc(N5CCN(C(=O)CCOCCNc6ccc7c(c6)C(=O)N(C6CCC(=O)NC6=O)C7=O)CC5)cc4)nn23)cc1` (stereo not shown) [JA-195, 2-(2,6-Dioxopiperidin-3-yl)-5-((2-(3-(4-(4-((5-(4-(methylsulfonyl)phenyl)-[1,2,4]triazolo[1,5-a]pyridin-2-yl)amino)phenyl)piperazin-1-yl)-3-oxopropoxy)ethyl)amino)isoindoline-1,3-dione], under setting [2], the half-maximal inhibitory concentration (IC50) is > 10000 nM. Regarding `CS(=O)(=O)c1ccc(-c2cccc3nc(Nc4ccc(N5CCN(C(=O)CCCCNc6ccc7c(c6)C(=O)N(C6CCC(=O)NC6=O)C7=O)CC5)cc4)nn23)cc1` (stereo not shown) [JA-196, 2-(2,6-dioxopiperidin-3-yl)-5-((5-(4-(4-((5-(4-(methylsulfonyl)phenyl)-[1,2,4]triazolo[1,5-a]pyridin-2-yl)amino)phenyl)piperazin-1-yl)-5-oxopentyl)amino)isoindoline-1,3-dione], the IC50 is, setting by setting: under setting [1], < 100 nM; under setting [2], 107 nM. In the case of `CS(=O)(=O)c1ccc(-c2cccc3nc(Nc4ccc(N5CCN(C(=O)CCOCCOCCOCCOCCNc6ccc7c(c6)C(=O)N(C6CCC(=O)NC6=O)C7=O)CC5)cc4)nn23)cc1` (stereo not shown) [JA-197, 2-(2,6-Dioxopiperidin-3-yl)-5-((15-(4-(4-((5-(4-(methylsulfonyl)phenyl)-[1,2,4]triazolo[1,5-a]pyridin-2-yl)amino)phenyl)piperazin-1-yl)-15-oxo-3,6,9,12-tetraoxapentadecyl)amino)isoindoline-1,3-dione], under setting [2], the IC50 came out at 5550 nM. For the compound `CS(=O)(=O)c1ccc(-c2cccc3nc(Nc4ccc(N5CCN(C(=O)CCCCCNc6ccc7c(c6)C(=O)N(C6CCC(=O)NC6=O)C7=O)CC5)cc4)nn23)cc1` (stereo not shown) [JA-198, 2-(2,6-dioxopiperidin-3-yl)-5-((6-(4-(4-((5-(4-(methylsulfonyl)phenyl)-[1,2,4]triazolo[1,5-a]pyridin-2-yl)amino)phenyl)piperazin-1-yl)-6-oxohexyl)amino)isoindoline-1,3-dione], the IC50 by setting is: under setting [1], < 100 nM; under setting [2], 7.3 nM.

`CS(=O)(=O)c1ccc(-c2cccc3nc(Nc4ccc(N5CCN(C(=O)CCCCCCNc6ccc7c(c6)C(=O)N(C6CCC(=O)NC6=O)C7=O)CC5)cc4)nn23)cc1` (stereo not shown) [JA-199, 2-(2,6-dioxopiperidin-3-yl)-5-((7-(4-(4-((5-(4-(methylsulfonyl)phenyl)-[1,2,4]triazolo[1,5-a]pyridin-2-yl)amino)phenyl)piperazin-1-yl)-7-oxoheptyl)amino)isoindoline-1,3-dione]: the 50% inhibitory concentration (IC50) reads like this: under setting [1], < 100 nM; under setting [2], 32.5 nM. For `CS(=O)(=O)c1ccc(-c2cccc3nc(Nc4ccc(N5CCN(C(=O)CCOCCOCCOCCNc6ccc7c(c6)C(=O)N(C6CCC(=O)NC6=O)C7=O)CC5)cc4)nn23)cc1` (stereo not shown) [JA-200, 2-(2,6-Dioxopiperidin-3-yl)-5-((2-(2-(2-(3-(4-(4-((5-(4-(methylsulfonyl)phenyl)-[1,2,4]triazolo[1,5-a]pyridin-2-yl)amino)phenyl)piperazin-1-yl)-3-oxopropoxy)ethoxy)ethoxy)ethyl)amino)isoindoline-1,3-dione], the IC50 under setting [2] came to 403 nM. Still for that read-out and setting: to `CS(=O)(=O)c1ccc(-c2cccc3nc(Nc4ccc(N5CCN(C(=O)CCOCCOCCNc6ccc7c(c6)C(=O)N(C6CCC(=O)NC6=O)C7=O)CC5)cc4)nn23)cc1` (stereo not shown) [JA-201] belongs 241 nM. With `CS(=O)(=O)c1ccc(-c2cccc3nc(Nc4ccc(N5CCN(C(=O)CCNc6ccc7c(c6)C(=O)N(C6CCC(=O)NC6=O)C7=O)CC5)cc4)nn23)cc1` (stereo not shown) [JA-202], the IC50 by setting is: under setting [1], < 100 nM; under setting [2], 108 nM. The corresponding values for `CS(=O)(=O)c1ccc(-c2cccc3nc(Nc4ccc(N5CCN(C(=O)CCCCCCCNc6ccc7c(c6)C(=O)N(C6CCC(=O)NC6=O)C7=O)CC5)cc4)nn23)cc1` (stereo not shown) [JA-203] are < 100 nM and 22.8 nM. `CS(=O)(=O)c1ccc(-c2cccc3nc(Nc4ccc(N5CCN(CC(=O)NCCCCCNc6ccc7c(c6)C(=O)N(C6CCC(=O)NC6=O)C7=O)CC5)cc4)nn23)cc1` (stereo not shown) [JA-204, N-(5-((2-(2,6-Dioxopiperidin-3-yl)-1,3-dioxoisoindolin-5-yl)amino)pentyl)-2-(4-(4-((5-(4-(methylsulfonyl)phenyl)-[1,2,4]triazolo[1,5-a]pyridin-2-yl)amino)phenyl)piperazin-1-yl)acetamide]: the IC50 under setting [2] was > 10000 nM. Still for that read-out and setting: to `CS(=O)(=O)c1ccc(-c2cccc3nc(Nc4ccc(N5CCN(CC(=O)NCCCCNc6ccc7c(c6)C(=O)N(C6CCC(=O)NC6=O)C7=O)CC5)cc4)nn23)cc1` (stereo not shown) [JA-205, N-(4-((2-(2,6-Dioxopiperidin-3-yl)-1,3-dioxoisoindolin-5-yl)amino)butyl)-2-(4-(4-((5-(4-(methylsulfonyl)phenyl)-[1,2,4]triazolo[1,5-a]pyridin-2-yl)amino)phenyl)piperazin-1-yl)acetamide] belongs 676 nM; to `CS(=O)(=O)c1ccc(-c2cccc3nc(Nc4ccc(N5CCN(CC(=O)NCCOCCOCCOCCOCCNc6ccc7c(c6)C(=O)N(C6CCC(=O)NC6=O)C7=O)CC5)cc4)nn23)cc1` (stereo not shown) [JA-206, N-(14-((2-(2,6-Dioxopiperidin-3-yl)-1,3-dioxoisoindolin-5-yl)amino)-3,6,9,12-tetraoxatetradecyl)-2-(4-(4-((5-(4-(methylsulfonyl)phenyl)-[1,2,4]triazolo[1,5-a]pyridin-2-yl)amino)phenyl)piperazin-1-yl)acetamide], > 10000 nM; to `CS(=O)(=O)c1ccc(-c2cccc3nc(Nc4ccc(N5CCN(CC(=O)NCCNc6ccc7c(c6)C(=O)N(C6CCC(=O)NC6=O)C7=O)CC5)cc4)nn23)cc1` (stereo not shown) [JA-207, N-(2-((2-(2,6-Dioxopiperidin-3-yl)-1,3-dioxoisoindolin-5-yl)amino)ethyl)-2-(4-(4-((5-(4-(methylsulfonyl)phenyl)-[1,2,4]triazolo[1,5-a]pyridin-2-yl)amino)phenyl)piperazin-1-yl)acetamide], 1240 nM.

In the case of `CS(=O)(=O)c1ccc(-c2cccc3nc(Nc4ccc(N5CCN(CC(=O)NCCOCCOCCNc6ccc7c(c6)C(=O)N(C6CCC(=O)NC6=O)C7=O)CC5)cc4)nn23)cc1` (stereo not shown) [JA-208, N-(2-(2-(2-((2-(2,6-Dioxopiperidin-3-yl)-1,3-dioxoisoindolin-5-yl)amino)ethoxy)ethoxy)ethyl)-2-(4-(4-((5-(4-(methylsulfonyl)phenyl)-[1,2,4]triazolo[1,5-a]pyridin-2-yl)amino)phenyl)piperazin-1-yl)acetamide], the IC50 under setting [2] turned out to be 3350 nM. The same measure, in the same setting: to `CS(=O)(=O)c1ccc(-c2cccc3nc(Nc4ccc(N5CCN(CC(=O)NCCOCCOCCOCCNc6ccc7c(c6)C(=O)N(C6CCC(=O)NC6=O)C7=O)CC5)cc4)nn23)cc1` (stereo not shown) [JA-209, N-(2-(2-(2-(2-((2-(2,6-Dioxopiperidin-3-yl)-1,3-dioxoisoindolin-5-yl)amino)ethoxy)ethoxy)ethoxy)ethyl)-2-(4-(4-((5-(4-(methylsulfonyl)phenyl)-[1,2,4]triazolo[1,5-a]pyridin-2-yl)amino)phenyl)piperazin-1-yl)acetamide] belongs > 10000 nM; to `CS(=O)(=O)c1ccc(-c2cccc3nc(Nc4ccc(N5CCN(CC(=O)NCCCNc6ccc7c(c6)C(=O)N(C6CCC(=O)NC6=O)C7=O)CC5)cc4)nn23)cc1` (stereo not shown) [JA-210, N-(3-((2-(2,6-Dioxopiperidin-3-yl)-1,3-dioxoisoindolin-5-yl)amino)propyl)-2-(4-(4-((5-(4-(methylsulfonyl)phenyl)-[1,2,4]triazolo[1,5-a]pyridin-2-yl)amino)phenyl)piperazin-1-yl)acetamide], > 10000 nM.
